Assay results published in US20100063085A1, “METHOD OF TREATING LEARNING IMPAIRMENT IN DOWN'S SYNDROME SUBJECTS” (University Court of The University of Dundee, priority 2008, published 2010).
Read-outs that look alike come from different tables or passages of the source.

Columns and labels:
MAPKAP-K1a = MAPKAP-K1a (Homo sapiens, UniProt Q15418); assay: MAPKAP-K1a 33P kinase assay; assay type: biochemical; settings: read-out: MAPKAP-K1a activity as percentage of control without inhibitor
Protocol: (§1) All assays (25.5 μl) were carried out at room temperature (21° C.) and were linear with respect to time and enzyme concentrations under the conditions used. Assays were performed for 30 minutes except assays for LCK and PKB which were performed for 15 minutes using Multidrop Micro reagent dispensers (Thermo Electron Corporation, Waltham, Mass. 02454, USA) in a 96-well format. The concentration of […] [γ-^33P] ATP (800 cpm/pmol) in the assays was one of three concentrations (5, 20 or 50 μM) in order to be at or below Km for ATP for the enzyme. Assays were initiated with MgATP and stopped by addition of 5 μl of 0.5M orthophosphoric acid. Assays were then harvested onto P81 filterplates using a unifilter harvester (PerkinElmer, Boston, Mass. 02118, USA), with a wash buffer of 50 mM orthophosphoric acid. Filterplates were then air dried overnight. 10 μl of Microscint O was added per well prior to counting for radioactivity.
MAPKAP-K1a (5-20 mU diluted in 20 mM MOPS pH 7.5, 1 mM EDTA, 0.01% Brij35, 5% glycerol, 0.1% β-mercaptoethanol, 1 mg/ml BSA) is assayed against […] in a final volume of 25.5 μl containing 50 mM Na-β-glycerophosphate pH 7.5, 0.5 mM EDTA, 30 μM substrate peptide, 10 mM magnesium acetate and 0.05 mM [33P- γATP] (50-1000 cpm/pmole) and incubated for 40 min at room temperature.

PKD1 = target: T1, PKD1 (Homo sapiens, UniProt Q15139); assay: PKD1 33P kinase assay; assay type: biochemical; settings: read-out: PKD1 activity as percentage of control without inhibitor
T1 sequence (Q15139 1-912): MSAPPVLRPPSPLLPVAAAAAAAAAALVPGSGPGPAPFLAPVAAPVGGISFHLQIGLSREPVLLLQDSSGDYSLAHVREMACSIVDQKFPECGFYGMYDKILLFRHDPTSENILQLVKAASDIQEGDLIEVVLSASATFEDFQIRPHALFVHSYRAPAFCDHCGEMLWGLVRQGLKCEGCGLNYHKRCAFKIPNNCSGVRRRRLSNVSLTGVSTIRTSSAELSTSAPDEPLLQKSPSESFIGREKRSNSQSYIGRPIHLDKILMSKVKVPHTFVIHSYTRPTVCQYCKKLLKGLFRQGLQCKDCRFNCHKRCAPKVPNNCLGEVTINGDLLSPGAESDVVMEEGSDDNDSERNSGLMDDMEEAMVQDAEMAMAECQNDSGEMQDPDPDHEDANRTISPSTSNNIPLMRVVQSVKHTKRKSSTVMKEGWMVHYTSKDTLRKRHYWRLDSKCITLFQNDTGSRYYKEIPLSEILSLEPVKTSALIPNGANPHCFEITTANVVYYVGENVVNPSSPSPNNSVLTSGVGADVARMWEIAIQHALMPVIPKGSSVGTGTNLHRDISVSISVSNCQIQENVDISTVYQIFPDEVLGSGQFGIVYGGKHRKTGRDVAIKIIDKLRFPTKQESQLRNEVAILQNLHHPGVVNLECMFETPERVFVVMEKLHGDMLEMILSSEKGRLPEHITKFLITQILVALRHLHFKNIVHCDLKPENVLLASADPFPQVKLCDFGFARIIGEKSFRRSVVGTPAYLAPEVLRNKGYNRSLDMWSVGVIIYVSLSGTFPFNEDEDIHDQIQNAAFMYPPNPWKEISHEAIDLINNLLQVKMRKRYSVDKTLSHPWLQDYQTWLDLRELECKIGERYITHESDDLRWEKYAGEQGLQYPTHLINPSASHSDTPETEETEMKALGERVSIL
Protocol: as §1
The following kinases were assayed against the substrates indicated. Aurora B was assayed against the substrate peptide […] (300 μM), ERK8 and MST-2 were both assayed against MBP (0.33 mg/ml). IKKβ was assayed against the substrate peptide […] (300 μM), JNK3 was assayed against 3 μM ATF2[19-96]. MAPKAP-K3 and PKD1 were both assayed against […] (30 μM), MARK3 was assayed against CHKtide ([…]) substrate peptide (300 μM). MNK1 and MNK2 were both assayed against eIF4E protein (0.5 mg/ml). NEK7 was assayed against […] (300 μM), PIM2 was assayed against […] (300 μM), ΔPH PKBβ-S474D was assayed against Crosstide (30 μM), PLK1 was assayed against […] (300 μM). PRK2 was assayed against Long S6 peptide, […] (30 μM), RSK2 was assayed against […] (30 μM), SRC was assayed against cdc2 peptide, […], (300 μM) and SRPK1 was assayed against peptide […] (300 μM). All enzymes were diluted in 50 mM Tris/HCl pH 7.5, 0.1 mM EGTA, 1 mg/ml BSA, 0.1% β-mercaptoethanol buffer and assayed in an incubation containing 50 mM Tris/HCl pH7.5, 0.1 mM EGTA, 0.1% β-mercaptoethanol, CAMK-1 (5-20 mU) diluted in 50 mM Tris/HCl pH 7.5, 0.1 mM EGTA, 1 mg/ml BSA, 0.1% β-mercaptoethanol is assayed against substrate peptide […] in an incubation containing 50 mM Tris/HCl pH 7.5, 0.1 mM EGTA, 0.5 mM CaCl2, 0.3 μM calmodulin, 0.1% β-mereaptoethanol, 300 μM substrate peptide, 10 mM magnesium acetate and 0.05 mM [^33P-γ-ATP] (500-1000 cpm/pmole). EF2K (5-20 mU) diluted in 50 mM Hepes pH 6.6, 0.1% β-mercaptoethanol, 1 mg/ml BSA is assayed against a substrate peptide […] in an incubation containing 50 mM Hepes pH 6.6, 0.2 mM CaCl2, 0.3 μM Calmodulin, 0.05% b-mercaptoethanol, 300 μM substrate peptide, 10 mM magnesium acetate and 0.05 mM [^33P-γ-ATP] (500-1000 cpm/pmole).

Sequence of MAPKAP-K1a (Q15418 whole entry, species assumed): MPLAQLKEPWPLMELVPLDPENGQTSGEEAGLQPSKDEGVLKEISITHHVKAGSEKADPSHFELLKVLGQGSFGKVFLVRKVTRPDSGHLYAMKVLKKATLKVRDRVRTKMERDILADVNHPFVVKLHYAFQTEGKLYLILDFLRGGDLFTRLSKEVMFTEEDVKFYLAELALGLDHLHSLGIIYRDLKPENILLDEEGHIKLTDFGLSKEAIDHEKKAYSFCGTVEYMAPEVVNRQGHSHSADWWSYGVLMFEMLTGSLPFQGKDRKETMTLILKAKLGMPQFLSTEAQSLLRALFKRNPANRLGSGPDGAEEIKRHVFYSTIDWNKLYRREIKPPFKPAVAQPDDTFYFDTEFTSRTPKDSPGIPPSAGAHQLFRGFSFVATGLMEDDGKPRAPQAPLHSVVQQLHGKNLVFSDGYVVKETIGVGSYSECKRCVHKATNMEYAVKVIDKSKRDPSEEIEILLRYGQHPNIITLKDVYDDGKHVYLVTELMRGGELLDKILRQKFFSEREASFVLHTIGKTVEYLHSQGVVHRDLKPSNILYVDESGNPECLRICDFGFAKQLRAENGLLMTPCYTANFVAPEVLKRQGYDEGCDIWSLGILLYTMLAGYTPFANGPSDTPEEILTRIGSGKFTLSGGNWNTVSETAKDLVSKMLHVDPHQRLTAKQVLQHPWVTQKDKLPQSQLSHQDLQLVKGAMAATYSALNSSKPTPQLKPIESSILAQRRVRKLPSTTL

COc1ccc2c3c([nH]c2c1)C(C)=NCC3 [Harmaline]
remaining activity at 1 µM (MAPKAP-K1a; inhibitor 1 μM): 98% | remaining activity at 10 µM (MAPKAP-K1a; inhibitor 10 μM): 90% | remaining activity at 1 µM (PKD1; inhibitor 1 μM): 99% | remaining activity at 10 µM (PKD1; inhibitor 10 μM): 101%

COc1ccc2c(c1)[nH]c1c(C)nccc12 [Harmine]
remaining activity at 1 µM (MAPKAP-K1a): 105% | remaining activity at 10 µM (MAPKAP-K1a): 92% | remaining activity at 1 µM (PKD1): 86% | remaining activity at 10 µM (PKD1): 53%

CC1=NCCc2c1[nH]c1cc(O)ccc21 [Harmalol]
remaining activity at 1 µM (MAPKAP-K1a; inhibitor 1 μM): 101% | remaining activity at 10 µM (MAPKAP-K1a; inhibitor 10 μM): 85% | remaining activity at 1 µM (PKD1; inhibitor 1 μM): 75% | remaining activity at 10 µM (PKD1; inhibitor 10 μM): 21%
